# “Also recorded” adds a separate entry of the source.
# Test system: SPM formation in human peripheral blood
# Experiment: Human whole blood incubation with MTX, plasma SPM by LC-MS/MS lipid mediator profiling
# Format: cell-based
# Details: MTX 100 nM, 37° C., 45 min
# Protocol: Plasma was obtained by centrifugation and peripheral blood SPM concentrations were determined using LC-MS/MS based lipid mediator profiling. (A) OPLS-DA analysis of plasma SPM concentrations. Colored spherical areas display 95% confidence region of respective incubations. […] Results for A, B are representative of n=6 donors from three distinct experiments. […] Blood was then collected after 1 hour and SPM concentrations were determined using LC-MS/MS based lipid mediator profiling (D) oPLS-DA analysis of plasma SPM concentrations. Colored areas display 95% confidence region of respective incubations. […] Results are representative of n=4 mice per group and experiments were conducted on two distinct occasions.
# Incubations were quenched and SPM were identified and quantified using LC-MS/MS-based lipid mediator profiling. Results are mean±SEM. n=6 volunteers per group.
# Plasma was obtained from peripheral blood of healthy volunteers, patients and mouse following centrifugation at 1500×g for 10 min at room temperature. Paws were collected and immediately transferred to liquid nitrogen prior to homogenization in 1 ml ice cold MeOH and homogenized using a glass dounce. All samples for LC-MS/MS-based profiling were extracted using solid-phase extraction columns as in Walker, M. E., Souza, P. R., Colas, R. A. & Dalli, J. “13-Series resolvins mediate the leukocyte-platelet actions of atorvastatin and pravastatin in inflammatory arthritis.” FASEB J 31, 3636-3648 (2017), the contents of which are incorporated herein by reference. Prior to sample extraction, deuterated internal standards, representing each region in the chromatographic analysis (500 pg each) were added to facilitate quantification. Samples were kept at −20° C. for a minimum of 45 min to allow protein precipitation. Supernatants were subjected to solid phase extraction, methyl formate fraction collected, brought to dryness and suspended in phase (methanol/water, 1:1, vol/vol) for injection on a Shimadzu LC-20AD HPLC and a Shimadzu SIL-20AC autoinjector, paired with a QTrap 5500 or QTrap 6500 plus (Sciex). An Agilent Poroshell 120 EC-C18 column (100 mm×4.6 mm×2.7 μm) was kept at 50° C. and mediators eluted using a mobile phase consisting of methanol/water/acetic acid of 20:80:0.01 (vol/vol/vol) that was ramped to 50:50:0.01 (vol/vol/vol) over 0.5 min and then to 80:20:0.01 (vol/vol/vol) from 2 min to 11 min, maintained till 14.5 min and then rapidly ramped to 98:2:0.01 (vol/vol/vol) for the next 0.1 min. This was subsequently maintained at 98:2:0.01 (vol/vol/vol) for 5.4 min, and the flow rate was maintained at 0.5 ml/min. QTrap 5500 or QTrap 6500 plus were operated using a multiple reaction monitoring method as in Walker, M. E., Souza, P. R., Colas, R. A. & Dalli, J. “13-Series resolvins mediate the leukocyte-platelet actions of atorvastatin and pravastatin in inflammatory arthritis.” FASEB J 31, 3636-3648 (2017), the contents of which are incorporated herein by reference. Each lipid mediator was identified using established criteria including matching retention time to synthetic or authentic standards and at least 6 diagnostic ions (Walker, M. E., Souza, P. R., Colas, R. A. & Dalli, J. “13-Series resolvins mediate the leukocyte-platelet actions of atorvastatin and pravastatin in inflammatory arthritis.” FASEB J 31, 3636-3648 (2017), the contents of which are incorporated herein by reference).
structure (smiles),measurement,setting,value
"CN(Cc1cnc2nc(N)nc(N)c2n1)c1ccc(C(=O)N[C@@H](CCC(=O)O)C(=O)O)cc1 [MTX, Methotrexate]","mediators from the DHA, n-3 DPA and EPA bioactive metabolomes including PDX, RvD1 and RvE3",,upregulation
same,plasma SPM concentrations,,upregulates; also recorded: increase
same,"plasma 4S,14S-diHDHA concentration, Mean ± SEM",n=6,2.82 ± 0.56
same,"plasma 5S,15S-diHETE concentration, Mean ± SEM",n=6,5.32 ± 0.43
same,"plasma 7S,14S-diHDHA concentration, Mean ± SEM",n=6,0.00 ± 0.00
same,"plasma 10S,17S-diHDPA concentration, Mean ± SEM",n=6,0.55 ± 0.16
same,"plasma 13,14-dehydro-15-oxo-LXA4 concentration, Mean ± SEM",n=6,82.74 ± 32.78
same,"plasma 14-oxo-MaR1 concentration, Mean ± SEM",n=6,0.00 ± 0.00
same,"plasma 14S-diHDPA concentration, Mean ± SEM",n=6,2.04 ± 0.41
same,"plasma 15-oxo-LXA4 concentration, Mean ± SEM",n=6,3.78 ± 0.56
same,"plasma 15R-LXB4 concentration, Mean ± SEM",n=6,2.13 ± 0.45
same,"plasma 17R-PD1 concentration, Mean ± SEM",n=6,0.96 ± 0.39
same,"plasma 17R-RvD1 concentration, Mean ± SEM",n=6,7.50 ± 1.97
same,"plasma 17R-RvD3 concentration, Mean ± SEM",n=6,2.68 ± 0.67
same,"plasma 22-OH-MaR1 concentration, Mean ± SEM",n=6,18.44 ± 4.31
same,"plasma 22-OH-PD1 concentration, Mean ± SEM",n=6,7.86 ± 2.61
same,"plasma LXA4 concentration, Mean ± SEM",n=6,0.55 ± 0.10
same,"plasma LXB4 concentration, Mean ± SEM",n=6,13.42 ± 2.93
same,"plasma MaR1 concentration, Mean ± SEM",n=6,24.53 ± 3.12
same,"plasma MaR1n-3 DPA concentration, Mean ± SEM",n=6,1.09 ± 0.29
same,"plasma MaR2 concentration, Mean ± SEM",n=6,0.00 ± 0.00
same,"plasma MaR2n-3 DPA concentration, Mean ± SEM",n=6,7.97 ± 0.87
same,"plasma PD1 concentration, Mean ± SEM",n=6,2.11 ± 0.24
same,"plasma PD1n-3 DPA concentration, Mean ± SEM",n=6,0.34 ± 0.10
same,"plasma PD2n-3 DPA concentration, Mean ± SEM",n=6,3.01 ± 1.23
same,"plasma PDx concentration, Mean ± SEM",n=6,1.55 ± 0.22
same,"plasma RvD1 concentration, Mean ± SEM",n=6,9.09 ± 1.13
same,"plasma RvD1n-3 DPA concentration, Mean ± SEM",n=6,5.43 ± 1.10
same,"plasma RvD2 concentration, Mean ± SEM",n=6,0.32 ± 0.13
same,"plasma RvD2n-3 DPA concentration, Mean ± SEM",n=6,3.58 ± 1.16
same,"plasma RvD3 concentration, Mean ± SEM",n=6,3.57 ± 1.38
same,"plasma RvD4 concentration, Mean ± SEM",n=6,1.44 ± 0.59
same,"plasma RvD5 concentration, Mean ± SEM",n=6,1.05 ± 0.22
same,"plasma RvD5n-3 DPA concentration, Mean ± SEM",n=6,1.26 ± 0.24
same,"plasma RvD6 concentration, Mean ± SEM",n=6,1.07 ± 0.21
same,"plasma RvE1 concentration, Mean ± SEM",n=6,1.15 ± 0.32
same,"plasma RvE2 concentration, Mean ± SEM",n=6,3.82 ± 1.15
same,"plasma RvE3 concentration, Mean ± SEM",n=6,4.49 ± 0.23
same,"plasma RvT1 concentration, Mean ± SEM",n=6,9.18 ± 2.50
same,"plasma RvT2 concentration, Mean ± SEM",n=6,1.63 ± 0.35
same,"plasma RvT3 concentration, Mean ± SEM",n=6,0.60 ± 0.24
same,"plasma RvT4 concentration, Mean ± SEM",n=6,0.36 ± 0.15
